IC50 data for 15 molecules are collected here from patent publication US10150767B2, “Therapeutic compounds and uses thereof” (priority 2014, dated 2018).

Sequence of CECR2 (Q9BXF3 424-538 limits assumed): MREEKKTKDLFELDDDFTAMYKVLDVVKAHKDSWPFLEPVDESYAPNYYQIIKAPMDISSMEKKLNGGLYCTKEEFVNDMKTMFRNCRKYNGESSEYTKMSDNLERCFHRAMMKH
Sequence of BRD9 (Q9H8M2 134-239 limits assumed): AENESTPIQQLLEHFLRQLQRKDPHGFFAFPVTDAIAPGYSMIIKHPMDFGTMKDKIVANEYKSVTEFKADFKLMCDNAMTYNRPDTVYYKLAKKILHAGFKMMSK

For the first assay, the target named is BRD9 (Homo sapiens (Human), UniProt Q9H8M2). Kind of assay: BRD9 AlphaLisa binding assay. The note with it: biotinylated H4-tetraacetyl peptide. Here is the method:
After 20 minutes incubation at room temperature AlphaLisa Streptavidin Acceptor Beads (Perkin-A[…]) and AlphaLisa Nickel donor beads (Perkin AS 10 ID) were added to a final concentration of 15 ug/mL each.
`CN1CCC(Cc2ccc(-c3cn(C)c(=O)c4[nH]ccc34)cc2)CC1` [Example 45, 6-methyl-4-[4-[(1-methyl-4-piperidyl)methyl]phenyl]-1H-pyrrolo[2,3-c]pyridin-7-one] came in with an IC50 of 64 nM.

For the next assay, the target named is CECR2 (Homo sapiens (Human), UniProt Q9BXF3). Description: CECR2 TR-FRET binding assay. The note with it: biotinylated probe compound 1001, TR-FRET. From the text:
IC50 Measurements for Inhibitors Using CECR2 TR-FRET Binding Assay
His/Flag epitope tagged CECR2424-538 was cloned, expressed, and purified to homogeneity.
For `Cn1cc(-c2ccc(C(=O)N3CC(F)(F)C3)cc2)c2cc[nH]c2c1=O` [Example 28, 4-[4-(3,3-difluoroazetidine-1-carbonyl)phenyl]-6-methyl-1H-pyrrolo[2,3-c]pyridin-7-one], the IC50 was found to be 130 nM.

`CN1CCN(C(=O)c2ccc(-c3cn(C)c(=O)c4[nH]ccc34)cc2)CC1=O` [Example 26, 6-methyl-4-(4-(4-methyl-3-oxopiperazine-1-carbonyl)phenyl)-1H-pyrrolo[2,3-c]pyridin-7(6H)-one] returned an IC50 of 240 nM.

`CC1Oc2cc(-c3cn(C)c(=O)c4[nH]ccc34)ccc2NC1=O` (stereo not drawn) [Example 16, 2-methyl-7-(6-methyl-7-oxo-1H-pyrrolo[2,3-c]pyridin-4-yl)-4H-1,4-benzoxazin-3-one] displayed an IC50 of 36 nM.

With `CCn1cc(-c2cccc(C(=O)N(C)C)c2)c2cc[nH]c2c1=O` [Example 20, 3-(6-ethyl-7-oxo-1H-pyrrolo[2,3-c]pyridin-4-yl)-N,N-dimethyl-benzamide], the IC50 came to 1300 nM.

Regarding `Cc1cc2c(-c3cccc(C(=O)N(C)C)c3)cn(C)c(=O)c2[nH]1` [Example 47, 3-(2,6-dimethyl-7-oxo-1H-pyrrolo[2,3-c]pyridin-4-yl)-N,N-dimethyl-benzamide], the IC50 was 130 nM.

For `Cn1cc(-c2ccc(C(=O)Nc3ccccc3)cc2)c2cc[nH]c2c1=O` [Example 35, 4-(6-methyl-7-oxo-1H-pyrrolo[2,3-c]pyridin-4-yl)-N-phenyl-benzamide], the IC50 worked out at 75 nM.

`COCCC(=O)Nc1ccc(-c2cn(C)c(=O)c3[nH]ccc23)cc1` [Example 7, 3-methoxy-N-[4-(6-methyl-7-oxo-1H-pyrrolo[2,3-c]pyridin-4-yl)phenyl]propanamide] registered an IC50 of 170 nM.

`CN1CCc2cc(-c3cn(C)c(=O)c4[nH]ccc34)ccc2C1` [Example 44, 6-methyl-4-(2-methyl-3,4-dihydro-1H-isoquinolin-6-yl)-1H-pyrrolo[2,3-c]pyridin-7-one] showed an IC50 of 54 nM.

`CN(C)C(=O)c1ccc(-c2cn(C)c(=O)c3[nH]ccc23)cc1` [Example 18, N,N-dimethyl-4-(6-methyl-7-oxo-1H-pyrrolo[2,3-c]pyridin-4-yl)benzamide] had an IC50 of 730 nM.

In another assay the target is TAF1-BD2 (Homo sapiens, UniProt P21675). Description: TAF1-BD2 TR-FRET binding assay. The note with it: Assay: TAF-1; biotinylated probe compound 1000, TR-FRET.
Description: Specifically, in a 384 well ProxiPlate TAF1-BD2 (6 nM final) was combined with biotin-ligand (50 nM final) in 50 mM HEPES (pH 7.5), 50 mM NaCl, 1 mM TCEP, 0.01% (w/v) BSA, and 0.008% (w/v) Brij-35 either in the presence of DMSO (final 0.2% DMSO) or compound dilution series in DMSO. After 10 minutes incubation at room temperature, a mixture Eu-W1024 Anti-6×His antibody (Perkin Elmer AD0110) and SureLight™ Allophycocyanin-Streptavidin (APC-SA, Perkin Elmer CR130-100) were added to a final concentrations of 0.2 nMolar antibody and 25 nMolar APC-SA, respectively. After twenty minutes of equilibration, the plates were read on an Envision instrument and IC50s calculated using a four parameter non-linear curve fit.
`CNC(=O)c1cccc(-c2cn(C)c(=O)c3[nH]ccc23)c1` [Example 24, N-methyl-3-(6-methyl-7-oxo-1H-pyrrolo[2,3-c]pyridin-4-yl)benzamide] returned an IC50 of 96 nM.

Regarding `CN1CCC(c2cccc(-c3cn(C)c(=O)c4[nH]ccc34)c2)CC1` [Example 43, 6-methyl-4-[3-(1-methyl-4-piperidyl)phenyl]-1H-pyrrolo[2,3-c]pyridin-7-one], the IC50 stood at 680 nM.

`Cn1cc(-c2ccc(C(=O)NCc3ccccc3)cc2)c2cc[nH]c2c1=O` [Example 37, N-benzyl-4-(6-methyl-7-oxo-1H-pyrrolo[2,3-c]pyridin-4-yl)benzamide] registered an IC50 of 63 nM.

In turn, `CN1CCC(Cc2cccc(-c3cn(C)c(=O)c4[nH]ccc34)c2)CC1` [Example 46, 6-methyl-4-[3-[(1-methyl-4-piperidyl)methyl]phenyl]-1H-pyrrolo[2,3-c]pyridin-7-one] showed a concentration for half-maximal inhibition (IC50) of 440 nM.

The molecule `Cn1cc(-c2ccc(C(=O)N3CCOCC3)cc2)c2cc[nH]c2c1=O` [Example 30, 6-methyl-4-[4-(morpholine-4-carbonyl)phenyl]-1H-pyrrolo[2,3-c]pyridin-7-one] had an IC50 of 350 nM.
